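Each compound was tested at five concentrations against cells in 96-well plates for 48 hours. The concentration for full growth arrest is given as TGI.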

Among the test systems are A498 renal; DMS 273 small cell lung; HT29 colon; LOX IMVI melanoma; M19-MEL melanoma; NCI-H460 lung; RXF 393 renal; UACC-62 melanoma; UO-31 renal; NCI/ADR-RES ovarian.
Assay in all cases: NCI-60 cell line screen, 48 h

`OCC(O)COc1c(Cl)cc(Cl)cc1Cl` (stereo not drawn): the TGI was more than 100 µM with A498 renal; more than 100 µM in the assay on DMS 273 small cell lung; more than 100 µM with HT29 colon; more than 74.1 µM in the assay with LOX IMVI melanoma; more than 100 µM with M19-MEL melanoma; more than 100 µM in the assay on NCI-H460 lung. Further, the TGI with RXF 393 renal, in the assay on UACC-62 melanoma and with UO-31 renal was more than 100 µM throughout.
In the case of `c1ccc2c(c1)Sc1ccccc1N2C1CN2CCC1CC2` (stereo not drawn), the TGI was found to be 22.5 µM in the assay on A498 renal; 30.7 µM in the assay on DMS 273 small cell lung; 53.9 µM in the assay on HT29 colon; 26.8 µM in the assay on LOX IMVI melanoma; 29.7 µM in the assay with M19-MEL melanoma; 33.4 µM with NCI-H460 lung. For the same compound, the TGI is 34.5 µM in the assay on UACC-62 melanoma and 39.6 µM with UO-31 renal.
As to `Nc1c(C(=O)NC23CC4CC(CC(C4)C2)C3)[n+]([O-])c2ccccc2[n+]1[O-]`, the TGI in the assay on A498 renal, in the assay on DMS 273 small cell lung, in the assay on HT29 colon, in the assay with LOX IMVI melanoma, in the assay with M19-MEL melanoma and in the assay on NCI-H460 lung was more than 100 µM throughout. For the same compound, the TGI in the assay on UACC-62 melanoma and in the assay on UO-31 renal was more than 100 µM in each case.
Consider `Cn1nc2ccc3nccc(NCCNCCO)c3c2n1`, for which the TGI in the assay with HT29 colon was 70 µM; in the assay with LOX IMVI melanoma, 43.1 µM; in the assay on M19-MEL melanoma it was more than 100 µM; in the assay with NCI-H460 lung it was 45.2 µM; in the assay on RXF 393 renal it was 87.5 µM; in the assay with UACC-62 melanoma it was more than 100 µM. Besides, the TGI in the assay with UO-31 renal is 90.9 µM.
On to `C[N+](C)(C)CC(=O)N/N=C(/Cc1nc2ccc([N+](=O)[O-])cc2[nH]c1=O)C(=O)Nc1cc(C(F)(F)F)ccc1Cl`, for which the TGI with A498 renal, in the assay with HT29 colon, with M19-MEL melanoma, in the assay with NCI-H460 lung, in the assay with RXF 393 renal and with UACC-62 melanoma was more than 100 µM each time. In the assay on UO-31 renal, the TGI is more than 100 µM.
As for `COc1ccc(OC(C)C(=O)O)c2c1CCCC2=O` (stereo not drawn), the TGI in the assay with A498 renal, in the assay on DMS 273 small cell lung, in the assay on HT29 colon, with LOX IMVI melanoma, in the assay on M19-MEL melanoma and with NCI-H460 lung was more than 100 µM each time. Further, the TGI in the assay with RXF 393 renal, in the assay on UACC-62 melanoma and with UO-31 renal was more than 100 µM throughout.
With `O=C(/C=C/c1ccccc1O)c1cccc2ccccc12`, the TGI with A498 renal is more than 100 µM; in the assay with DMS 273 small cell lung, more than 100 µM; in the assay with HT29 colon, more than 100 µM; with LOX IMVI melanoma, 98.6 µM; with M19-MEL melanoma, more than 100 µM; with NCI-H460 lung, more than 100 µM. Also, the TGI in the assay with RXF 393 renal was more than 88.9 µM; in the assay with UACC-62 melanoma, more than 100 µM; in the assay on UO-31 renal, more than 100 µM.
In the case of `Cc1ccc(NC(=O)/C(=N/NC(=O)C[N+](C)(C)C)c2nc3ccccc3[nH]c2=O)cc1`, the TGI with A498 renal, in the assay with DMS 273 small cell lung, in the assay on HT29 colon, with LOX IMVI melanoma, in the assay with M19-MEL melanoma and in the assay with NCI-H460 lung was more than 100 µM each time. Also, the TGI with RXF 393 renal, in the assay with UACC-62 melanoma and with UO-31 renal was more than 100 µM each time.
`O=C1CCNC(=O)NC1`: the TGI in the assay on A498 renal, in the assay on DMS 273 small cell lung, in the assay with HT29 colon, in the assay on LOX IMVI melanoma, in the assay on M19-MEL melanoma and in the assay on NCI-H460 lung was more than 100 µM in each case. Moreover, the TGI in the assay on RXF 393 renal, in the assay with UACC-62 melanoma and in the assay with UO-31 renal was more than 100 µM in each case.
For the compound `C[N+](C)(C)CC(CC(=O)[O-])C1CC1` (stereo not drawn), the TGI in the assay with A498 renal, in the assay on DMS 273 small cell lung, in the assay with HT29 colon, in the assay on LOX IMVI melanoma, in the assay on M19-MEL melanoma and in the assay on NCI-H460 lung was more than 100 µM in each case. Moreover, the TGI in the assay on RXF 393 renal, in the assay with UACC-62 melanoma and in the assay with UO-31 renal was more than 100 µM each time.
Regarding `Cc1ccc(/C=C/C(=O)c2ccc([N+](=O)[O-])cc2)cc1`, the TGI in the assay on A498 renal is 19.1 µM; in the assay on DMS 273 small cell lung it was more than 100 µM; in the assay on HT29 colon it was more than 100 µM; in the assay with LOX IMVI melanoma, more than 100 µM; in the assay with M19-MEL melanoma, more than 100 µM; in the assay with NCI-H460 lung, more than 100 µM. The TGI in the assay with RXF 393 renal, with UACC-62 melanoma and in the assay on UO-31 renal was more than 100 µM in each case.
Consider `O=C1/C(=C/c2ccc(Cl)cc2)CCC1CN1CCOCC1` (stereo not drawn), for which the TGI came out at 36 µM in the assay on A498 renal; 11.9 µM in the assay on DMS 273 small cell lung; 23 µM in the assay with HT29 colon; 5.24 µM in the assay with LOX IMVI melanoma; 39.2 µM in the assay on NCI-H460 lung; 22.5 µM with NCI/ADR-RES ovarian. Further, the TGI was 11.2 µM in the assay on RXF 393 renal, 15.8 µM in the assay with UACC-62 melanoma and 22.4 µM in the assay with UO-31 renal.
Consider `CN(C(=O)C12C3C4C1C1C2C3C41C(O)C(C)(C)C)C(C)(C)C` (stereo not drawn), for which the TGI in the assay on A498 renal, in the assay on DMS 273 small cell lung, in the assay on HT29 colon, in the assay with LOX IMVI melanoma, in the assay with M19-MEL melanoma and with NCI-H460 lung was more than 100 µM throughout. Besides, the TGI with UACC-62 melanoma and in the assay on UO-31 renal was more than 100 µM throughout.
On to `C=C1CCC2C(C)(CO)C(O)CCC2(C)C1C/C=C1/CCOC1=O` (stereo not drawn), for which the TGI with A498 renal, in the assay on DMS 273 small cell lung, with HT29 colon, in the assay on LOX IMVI melanoma, with M19-MEL melanoma and with NCI-H460 lung was more than 100 µM each time. The TGI with UACC-62 melanoma and in the assay on UO-31 renal was more than 100 µM in each case.
Take `CCOC(=O)C(=O)Nc1ccccc1OCC`: the TGI in the assay with HT29 colon, in the assay on LOX IMVI melanoma, in the assay on M19-MEL melanoma, in the assay with NCI-H460 lung, in the assay on RXF 393 renal and in the assay with UACC-62 melanoma was more than 100 µM in each case. In the assay on UO-31 renal, the TGI was more than 100 µM.
As for `ClC1c2ccccc2C2(c3ccccc3)OOC1(c1ccccc1)O2` (stereo not drawn), the TGI is 4.45 µM in the assay with A498 renal; 3.17 µM in the assay with DMS 273 small cell lung; 3.69 µM in the assay with HT29 colon; 1.31 µM with LOX IMVI melanoma; 3.13 µM in the assay on NCI-H460 lung; 2.83 µM with RXF 393 renal. The TGI in the assay with UACC-62 melanoma turned out to be 3.66 µM; in the assay on UO-31 renal, 3.06 µM.

The values above are taken from PubChem BioAssay (NCI).
